Reference: patent publication US6706763B1, “O-anisamide derivatives” (Kyorin Pharmaceutical Co., Ltd., priority 1999, dated 2004)

tested on: not given; experiment: not given; settings: not given

melting point [°C] | SMILES
158 to 159 | COc1ccc(CC(C(=O)O)S(C)(=O)=O)cc1C(=O)NCc1ccc(C(F)(F)F)cc1 (stereo not shown) [Example 9, 3-[4-Methoxy-3-[N-(4-trifluoromethylbenzyl)]carbamoylphenyl]-2-(methylsulfonyl)propionic acid]
152.5 to 153.5 | COc1ccc(CC(SC)C(N)=O)cc1C(=O)NCc1ccc(C(F)(F)F)cc1 (stereo not shown) [Example 3, 5-[2-Carbamoyl-2-(methylthio)ethyl]-2-methoxy-N-(4-trifluoromethylbenzyl)benzamide]
159 to 161 | COc1ccc(CC(S)C(N)=O)cc1C(=O)NCc1ccc(C(F)(F)F)cc1 (stereo not shown) [Example 6, 5-(2-Carbamoyl-2-mercaptoethyl)-2-methoxy-N-(4-trifluoromethylbenzyl)benzamide]
219 to 220 | COc1ccc(CC(C(N)=O)S(C)(=O)=O)cc1C(=O)NCc1ccc(C(F)(F)F)cc1 (stereo not shown) [Example 5, 5-[2-Carbamoyl-2-(methylsulfonyl)ethyl]-2-methoxy-N-(4-trifluoromethylbenzyl)benzamide]
170 to 171 | COc1ccc(CC(C(N)=O)[S+](C)[O-])cc1C(=O)NCc1ccc(C(F)(F)F)cc1 (stereo not shown) [Example 4, 5-[2-Carbamoyl-2-(methylsulfinyl)ethyl]-2-methoxy-N-(4-trifluoromethylbenzyl)benzamide]
167 to 168 | COc1ccc(CC(=O)O)cc1C(=O)NCc1ccc(C(F)(F)F)cc1 [Example 2, 4-Methoxy-3-[N-(4-trifluoromethylbenzyl)]carbamoylphenylacetic acid]
235.5 to 236.5 | COc1ccc(C(=O)O)cc1C(=O)NCc1ccc(C(F)(F)F)cc1 [Example 1, 4-Methoxy-3-[N-(4-trifluoromethylbenzyl)carbamoyl]benzoic acid]

molecular target: T1, ligand binding domain of human type PPARα fused with DNA-binding domain of GAL4 (Homo sapiens, UniProt Q07869); experiment: Test of transcriptional activation on peroxisome proliferator-activated receptor α (GAL4 chimera luciferase reporter in CHO cells); format: cell-based; settings: CHO cells cotransfected with GAL4-human PPARα LBD receptor plasmid and luciferase reporter; luciferase activity after 24 hours
T1 construct: expressed in transfected cells; host or cells: CHO cells
T1 sequence (Q07869 239-466 limits assumed): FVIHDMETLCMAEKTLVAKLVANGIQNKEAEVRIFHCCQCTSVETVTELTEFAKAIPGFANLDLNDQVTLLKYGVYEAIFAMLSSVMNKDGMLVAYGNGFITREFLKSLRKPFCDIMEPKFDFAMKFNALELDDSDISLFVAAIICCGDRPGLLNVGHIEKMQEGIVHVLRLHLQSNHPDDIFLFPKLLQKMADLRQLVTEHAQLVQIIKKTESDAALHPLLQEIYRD
Source text: Test of transcriptional activation on peroxisome proliferator-activated receptors α and γ
To CHO cells cultured in a Ham's F-12 medium with 10% fetal calf serum, receptor plasmid that expresses fused protein of DNA-binding domain of GAL4 being transcription factor of yeast with ligand binding domain of human type PPARs α and γ (Biochemistry, 1993, 32, 5598), firefly luciferase reporter plasmid (Promega Corp.) that is activated by GAL4 and sea shiitake mushroom luciferase plasmid (Promega Corp.) for internal standard were cotransfected with lipofectamine. Thereafter, testing compound dissolved into dimethyl sulfoxide (DMSO) (final concentration of DMSO 0.1%) and control drug were adjusted with Ham's F-12 medium containing 10% defatted fetal calf serum to culture. After 24 hours, the luciferase activity was measured.

EC50 [µM] | SMILES
2.1 | COc1ccc(CC(SC)C(N)=O)cc1C(=O)NCc1ccc(C(F)(F)F)cc1 (stereo not shown) [Example 3, 5-[2-Carbamoyl-2-(methylthio)ethyl]-2-methoxy-N-(4-trifluoromethylbenzyl)benzamide]
1.2 | COc1ccc(CC(SC)C(=O)O)cc1C(=O)NCc1ccc(C(F)(F)F)cc1 (stereo not shown) [Example 7, 3-[4-Methoxy-3-[N-(4-trifluoromethylbenzyl)]carbamoylphenyl]-2-(methylthio)propionic acid]
1.3 | CCCCC/C=C\C/C=C\C=C\[C@@H](O)C/C=C\CCCC(=O)O [(8S)-HETE, 8-hydroxyeicosatetraenoic acid, reference compound]
